The record followed here is PubChem BioAssay AID463203 (Broad Institute, 2010).

The target of the assay is Glycogen synthase kinase-3 alpha (Homo sapiens) (UniProt P49840). As to the kind of experiment: concentration-response blocking of human GSK3A – biochemical, luminescence, cell-free homogeneous, retest, dose response (AID 463203). The following applies: GSK-3 alpha enzyme, ADP-Glo luminescence, 60 min.

Activity calls are given as the source filed them.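 The calls were made as follows: active = more than half of replicate measurements showing over 20% loss of kinase signal relative to plate controls; inconclusive = some but at most half of replicates over 20% loss; inactive = no replicate over 20% signal loss.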 A value given as a limit tells only on which side of the number the result lay.

Glycogen synthase kinase-3 alpha (Homo sapiens), sequence (P49840 whole entry, looked up): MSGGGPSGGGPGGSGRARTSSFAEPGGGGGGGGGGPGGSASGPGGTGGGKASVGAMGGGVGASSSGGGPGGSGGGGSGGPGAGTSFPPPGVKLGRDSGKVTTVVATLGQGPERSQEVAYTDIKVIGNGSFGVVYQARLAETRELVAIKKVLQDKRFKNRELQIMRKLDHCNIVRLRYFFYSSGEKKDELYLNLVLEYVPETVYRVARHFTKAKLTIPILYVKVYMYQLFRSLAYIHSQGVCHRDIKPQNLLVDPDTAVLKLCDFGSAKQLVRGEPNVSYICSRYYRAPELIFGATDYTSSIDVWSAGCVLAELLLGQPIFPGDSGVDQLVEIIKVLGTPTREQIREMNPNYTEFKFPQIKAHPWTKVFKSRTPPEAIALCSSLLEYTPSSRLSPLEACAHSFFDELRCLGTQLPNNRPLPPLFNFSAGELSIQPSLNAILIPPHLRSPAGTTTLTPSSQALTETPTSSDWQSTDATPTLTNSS

`CN1/C(=C\C=C\C2=[N+](C)c3ccc4ccccc4c3C2(C)C)C(C)(C)c2ccccc21`: the half-maximal activity concentration (AC50) is 10.3 µM.
Take `Cc1cc(C(C#N)c2ccccc2)n2ncnc2n1` (configuration not stated): the AC50 is 3.35 µM.
Take `O=C(Nc1nccs1)C1CCN(S(=O)(=O)c2cnc[nH]2)CC1`: the AC50 is > 30 µM (inactive).
Consider `Cc1ccc(/C=N/NC(=O)c2nnn(-c3nonc3N)c2-c2cccs2)cc1`, for which the AC50 is 1.04 µM.
Take `COc1ccc(-c2cc(=O)c3c(O)cc(O)cc3o2)cc1`: the AC50 is 4.21 µM.
With `CCOc1ccc(S(=O)(=O)c2c(C(=O)c3ccc(C)cc3)cnc3cc4c(cc23)OCCO4)cc1` the figure was > 30 µM (inactive); with `CCOCCCN(C(=O)c1snc(C(N)=O)c1N)C(C(=O)NC1CCCC1)c1ccc(O)cc1` (configuration not stated), 27 µM.
For the compound `CCn1c2ccc(Cl)cc2c2nc3ccccc3nc21`, the AC50 is > 30 µM (inactive).
Turning to `COc1ccccc1NC(=O)Nc1ccccc1Br`, the AC50 is > 30 µM (inactive).
As to `Cc1cc(N2CCN(c3ccccc3)CC2)n2c(n1)nc1ccccc12`, the concentration at half-maximal activity (AC50) is 4.33 µM.
With `Cc1ccc(Sc2nc(-c3ccccc3)nnc2C(F)(F)F)cc1` the figure was > 30 µM (inactive); with `c1ccc2[nH]c(-c3ccncc3)nc2c1`, > 30 µM (inactive); with `COc1ccc(NC(=O)c2c(Nc3ccccc3)sc(C(=O)c3ccc(F)cc3)c2N)cc1`, > 30 µM (inactive).
Consider `CCOc1cccc(-c2c(C(=O)N/N=C(\C)c3cccnc3)nnn2-c2nonc2N)c1`, for which the AC50 is 5.21 µM.
With `O=C(NCCCN1CCOCC1)c1ccc(Cl)c([N+](=O)[O-])c1` the figure was > 30 µM (inactive); with `CCCCc1ccc(NC(=O)N[C@@H](C)C(=O)O)cc1`, > 30 µM (inactive); with `Cc1c2c(n3c(nc4ccccc43)c1C#N)N(CCN(C)C)CC2`, 21.7 µM.
For the compound `CCn1c2ccccc2c2nnc(SCC(N)=O)nc21`, the half-maximal activity concentration (AC50) was 15.4 µM.
For `CCN1CCN(Cc2c(O)ccc3c2O/C(=C\C=C\c2ccccc2OC)C3=O)CC1`, the AC50 is > 30 µM (inactive).
As for `O=C(COC(=O)C1CCC1)c1c[nH]c2ccccc12`, the AC50 was > 30 µM (inactive).
For the compound `CCOc1ccccc1NC(=O)Nc1ccc(Cl)cc1`, the AC50 was > 30 µM (inactive).
The figure for `COC1(OC)N=C(N)C2(C#N)C(c3cccc(Oc4ccccc4)c3)C12C#N` (configuration not stated) is > 30 µM (inactive).
